Here are results for one substance from paper PMC11054727 (Viruses, 2024).

The assay concerns the target trimeric construct of the SARS-CoV-2 S2 segment (Severe acute respiratory syndrome coronavirus 2, UniProt P0DTC2, A892P/A899P/A942P/F817P/K986P/V987P). Type of assay: binding.

Ivermectin: the “binding to S2” value is “did not show any binding”.
